Assay results taken from ChEMBL document CHEMBL4229459, “An efficient synthetic route for preparation of antimycobacterial wollamides and evaluation of their in vitro and in vivo efficacy” (Bioorg Med Chem Lett, 2018).
pIC50: −log10 of the molar value. Converted amounts (≈) assume the structure as drawn. Residues, ends and D or L forms follow the SMILES beside them.

What was measured:
HepG2 = experiment: Cytotoxicity against human HepG2 cells after 48 hrs by CellTiter-Glo luminescence assay; format: cell-based; details: HepG2, 48 h
[1] = system: Mycobacterium tuberculosis; experiment: Antimycobacterial activity against Mycobacterium tuberculosis H37Rv incubated for 6 days under shaking condition by resazurin dye based fluorescence assay; format: functional; details: 144 h
[2] = Permeability of the compound by PAMPA; format: ADME; details: read-out: permeability
[3] = Kinetic aqueous solubility of the compound by charged aerosol detection method; format: physicochemical; details: buffer; read-out: Kinetic_solubility
[4] = Intrinsic clearance in human liver microsomes; format: ADME, microsome
[5] = Intrinsic clearance in mouse liver microsomes; format: ADME, microsome
Mus musculus [6] = experiment: Toxicity in C57BL/6J mouse assessed as body weight loss at 25 mg/kg, ip after 24 hrs by Irwin test; format: organism-based; details: in vivo
[7] = Permeability of the compound at pH 7.4 at […] incubated for 3 hrs under shaking condition by HPLC method; format: ADME; details: not told, read-out: permeability
[8] = AUC (0 to 6 hrs) in C57BL/6J mouse at 5 mg/kg, ip; format: ADME, organism-based; set-up: dose 5 mg/kg, time < 6 hr, route intraperitoneal; details: in vivo
Mus musculus [9] = experiment: Dose normalized AUC (0 to 6 hrs) in C57BL/6J mouse at 25 mg/kg, ip; format: ADME, organism-based; details: in vivo
[10] = Kinetic aqueous solubility of the compound at pH 7.4 phosphate buffered saline after 1 hr by CLND method; format: physicochemical; details: read-out: Kinetic_solubility
Mus musculus [11] = experiment: Dose normalized AUC (0 to 6 hrs) in C57BL/6J mouse at 5 mg/kg, ip; format: ADME, organism-based; details: in vivo
[12] = Cmax in C57BL/6J mouse at 5 mg/kg, ip; format: ADME, organism-based; set-up: dose 5 mg/kg, route intraperitoneal; details: in vivo
Mus musculus [13] = experiment: Toxicity in C57BL/6J mouse assessed as behavioral changes at 5 to 25 mg/kg, ip by Irwin test; format: organism-based; details: in vivo
[14] = AUC (0 to 6 hrs) in C57BL/6J mouse at 25 mg/kg, ip; format: ADME, organism-based; set-up: dose 25 mg/kg, time < 6 hr, route intraperitoneal; details: in vivo
[15] = system: Mycobacterium tuberculosis; experiment: Antimycobacterial activity against Mycobacterium tuberculosis H37Rv infected in human THP1 cells treated prior to infection measured after 4 days by luciferase reporter gene assay; format: functional, organism-based; details: THP-1, 96 h
[16] = Cmax in C57BL/6J mouse at 25 mg/kg, ip; format: ADME, organism-based; set-up: dose 25 mg/kg, route intraperitoneal; details: in vivo
[17] = system: Mycobacterium tuberculosis; experiment: Antimycobacterial activity against Mycobacterium tuberculosis H37Rv infected in C57BL/6J mouse assessed as log10 CFU reduction in bacterial lung count at 5 mg/kg, ip administered once daily for 8 days measured post last dose relative to control; format: functional
[18] = Intrinsic clearance in human liver microsomes at […] pretreated for 45 mins followed by NADPH addition by LC-MS/MS analysis; format: ADME, microsome
[19] = Kinetic aqueous solubility of the compound by CLND method; format: physicochemical; details: buffer; read-out: Kinetic_solubility
[20] = Intrinsic clearance in mouse liver microsomes at […] pretreated for 45 mins followed by NADPH addition by LC-MS/MS analysis; format: ADME, microsome
[21] = system: Mycobacterium tuberculosis; experiment: Antimycobacterial activity against Mycobacterium tuberculosis H37Rv infected in C57BL/6J mouse assessed as log10 CFU reduction in bacterial lung count at 30 mg/kg, po administered once daily for 8 days measured post last dose relative to control; format: functional

Row | SMILES | pIC50 (HepG2) | MIC [1] [µM] | Papp [2] [×10⁻⁶ cm/s] | solubility kinetic [3] [µM] | CLH [4] [mL/min/g] | CLH [5] [mL/min/g] | solubility kinetic at 1 h [10] [µM] | pIC50 [15] | CLH [18] [mL/min/g] | also measured
1 | CC(C)C[C@@H]1NC(=O)[C@H](Cc2c[nH]c3ccccc23)NC(=O)[C@@H](CCCN)NC(=O)[C@H](CC(=O)NC2CCCCC2)NC(=O)[C@H](C(C)C)NC(=O)[C@@H](CC(C)C)NC1=O | 4.30 | 5 (≈ 4.11 µg/mL) | – | – | – | – | – | – | – | –
2 | CC(C)C[C@@H]1NC(=O)[C@H](Cc2c[nH]c3ccccc23)NC(=O)[C@@H](CCCN)NC(=O)[C@H](CC(=O)N2CCCCC2)NC(=O)[C@H](C(C)C)NC(=O)[C@@H](CC(C)C)NC1=O | < 4.00 | 20 (≈ 16.2 µg/mL) | < 1 | 107 (≈ 86.5 µg/mL) | 1.9 | < 0.48 | – | – | – | –
3 | CC[C@H](C)[C@@H]1NC(=O)[C@@H](CC(C)C)NC(=O)[C@H](CC(C)C)NC(=O)[C@H](Cc2c[nH]c3ccccc23)NC(=O)[C@@H](CCCN)NC(=O)[C@H](CC(N)=O)NC1=O | 4.30 | 1.1 (≈ 0.829 µg/mL) | – | – | – | < 0.48 | > 235 | 6.10 | 1.87 | Activity (Mus musculus [6]): 10%; Papp at 3 h [7]: < 1 ×10⁻⁶ cm/s; AUC(0-t) at 6 h [8]: 4780 ng·h/mL; AUC/dose (Mus musculus [9]): 1063.8 ng·h/mL/mg/kg; AUC/dose (Mus musculus [11]): 957 ng·h/mL/mg/kg; Cmax [12]: 2170 ng/mL; Activity (Mus musculus [13]): Non-Toxic; AUC(0-t) at 6 h [14]: 26600 ng·h/mL; Cmax [16]: 6330 ng/mL; FC [17]: -0.2
4 | CC(C)C[C@@H]1NC(=O)[C@H](Cc2c[nH]c3ccccc23)NC(=O)[C@@H](CCCN)NC(=O)[C@H](CC(=O)NCc2ccccc2)NC(=O)[C@H](C(C)C)NC(=O)[C@@H](CC(C)C)NC1=O | 4.40 | 10 (≈ 8.3 µg/mL) | < 1 | > 353 | 0.88 | 0.73 | – | – | – | –
5 | CC[C@@H](C)[C@@H]1NC(=O)[C@@H](CC(C)C)NC(=O)[C@H](CC(C)C)NC(=O)[C@H](Cc2c[nH]c3ccccc23)NC(=O)[C@@H](CCCN)NC(=O)[C@H](CC(N)=O)NC1=O | 4.30 | 1.1 (≈ 0.829 µg/mL) | < 1 | – | 0.87 | < 0.48 | – | 6.10 | – | solubility kinetic [19]: 177 µM (≈ 133 µg/mL)
6 | CCCCNC(=O)C[C@@H]1NC(=O)[C@H](C(C)C)NC(=O)[C@@H](CC(C)C)NC(=O)[C@H](CC(C)C)NC(=O)[C@H](Cc2c[nH]c3ccccc23)NC(=O)[C@@H](CCCN)NC1=O | 4.20 | 10 (≈ 7.96 µg/mL) | < 1 | 146 (≈ 116 µg/mL) | 1.69 | 1.19 | – | – | – | –
7 | CC(C)C[C@@H]1NC(=O)[C@H](Cc2c[nH]c3ccccc23)NC(=O)[C@@H](CCCN)NC(=O)[C@H](CC(=O)N2CCC(Oc3ccc(OC(F)(F)F)cc3)CC2)NC(=O)[C@H](C(C)C)NC(=O)[C@@H](CC(C)C)NC1=O | 4.50 | > 80 | 8.7 | – | 0.4 | < 0.48 | 20 (≈ 19.7 µg/mL) | – | – | –
8 | CC[C@H](C)[C@@H]1NC(=O)[C@@H](CC(C)C)NC(=O)[C@H](CC(C)C)NC(=O)[C@H](Cc2c[nH]c3ccccc23)NC(=O)[C@@H](CCCNC(=N)N)NC(=O)[C@H](CC(N)=O)NC1=O (HELM PEPTIDE1{I.N.[dR].W.L.[dL]}$PEPTIDE1,PEPTIDE1,1:R1-6:R2$$$V2.0) | 4.30 | 0.6 (≈ 0.478 µg/mL) | – | – | – | – | > 238 | 6.70 | 7.44 | Activity (Mus musculus [6]): 10%; AUC(0-t) at 6 h [8]: 6290 ng·h/mL; AUC/dose (Mus musculus [9]): 586.1 ng·h/mL/mg/kg; AUC/dose (Mus musculus [11]): 1258.6 ng·h/mL/mg/kg; Cmax [12]: 1470 ng/mL; Activity (Mus musculus [13]): Non-Toxic; CLH [20]: 1.01 mL/min/g; AUC(0-t) at 6 h [14]: 14700 ng·h/mL; Cmax [16]: 3260 ng/mL; FC [17]: -0.2
9 | CC(C)C[C@@H]1NC(=O)[C@H](Cc2c[nH]c3ccccc23)NC(=O)[C@@H](CCCN)NC(=O)[C@H](CC(N)=O)NC(=O)[C@H](C(C)C)NC(=O)[C@@H](CC(C)C)NC1=O (HELM PEPTIDE1{[NCCC[C@@H](N[*:1])C(=O)[*:2]].W.L.[dL].V.N}$PEPTIDE1,PEPTIDE1,1:R1-6:R2$$$V2.0) | 4.30 | 0.6 (≈ 0.444 µg/mL) | – | – | – | – | 204 (≈ 151 µg/mL) | 5.90 | 0.97 | Papp at 3 h [7]: < 0.65 ×10⁻⁶ cm/s; CLH [20]: < 0.5 mL/min/g
10 | COc1c(N2C[C@@H]3CCCN[C@@H]3C2)c(F)cc2c(=O)c(C(=O)O)cn(C3CC3)c12 [MOXIFLOXACIN] | – | – | – | – | – | – | – | – | – | FC [21]: 3.4
